Source: patent US5663182A, “Antipsychotic method” (priority 1996, dated 1997)
pIC50: −log10 of the molar value. Structures can show the parent of a compound that is named as a salt.

Experiments:
[1] = molecular target: muscarinic receptors; test: 3H-oxotremorine-M binding assay; conditions: 3 nM 3H-oxotremorine-M, rat cerebral cortical membranes, 15 min 25° C.; read-out: Inhibition of 3H-Oxo
Experimental: Each compound was tested to determine the affinity of the compound for the muscarinic receptors using the following procedure.
For each in vitro binding, male Sprague-Dawley (Harlan Sprague-Dawley, Indianapolis, Ind.) rats weighing from about 100 to about 150 grams each were sacrificed by decapitation. The brains were quickly removed and the cerebral cortex were dissected from the brain. The cerebral cortex tissue was homogenized in 10 volumes of 0.32 M sucrose and […] about 10 minutes at about 1000 x g. The supernatant was centrifuged at about 12,000 x g for about 10 minutes and the resulting pellet was resuspended in 20 mM tris-Cl, pH 7.4. The resuspended pellet was centrifuged again for about 10 minutes at about 50,000 x g. The resulting homogenate was preincubated for about 10 minutes at about 25° C. and centrifuged again for about 10 minutes at about 50,000 x g. The pellet was resuspended at 1 gram of pellet per 3 ml of buffer and frozen at about -80° C. until used.
The aforementioned homogenates mixture was incubated for about 15 minutes at about 25° C. and then the homogenates were filtered through glass filters (Whatman, GF/C) with vacuum. The filters were washed 3 times with about 2 ml of cold tris-Cl buffer, and placed in scintillation vials containing about 10 ml of scintillation fluid (Ready Protein+, Beckman, Fullerton, Calif.). Radioactivity trapped on the filters was determined by liquid scintillation spectrometry. Nonspecific binding was determined using 1 μM atropine. […] DeLean, A. et al. Am.

[2] = tested on: Rats; test: Conditioned avoidance behavior in rats; assay type: in vivo, rat; conditions: screening dose 3.0 mg/kg s.c. 30 min before session
Text: In a conditioned avoidance test, animals learn to respond during a conditioned stimulus in order to avoid mild shock presentation. A response during the conditioned stimulus is termed an avoidance respone, a response during shock is termed an escape response; a response failure is when the animal fails to respond during either the conditioned stimlus or the shock presentation and is indicative of motor impairment. […] Antipsychotic drugs decrease the percentage of avoidance responses without interfering with the ability of the animal to respond since the animals do emit escape responses. The percentage of response failures is considered a measure of motor impairment.
Rats were required to press a response lever in an experimental chamber in order to avoid or escape foot-shock. Each experimental session consisted of 50 trials. During each trial, the chamber was illuminated and a tone presented for a maximum of 10 sec. A response during the tone immediately terminated the tone and the houselight, ending the trial. In the absence of a response during the tone alone, tone+foot-shock (2.0 mA) was presented for a maximum of 10 sec. A response during shock presentation immediately terminated the shock, the tone and the houselight, ending the trial.
For drug screening, a dose of 3.0 mg/kg was administered s.c. 30 min before the start of the experimental session.

SMILES | pIC50 [1] | Conditioned Avoidance % Avoidance Responses [2] | Conditioned Avoidance % Avoidance Responses ([2]; 3 mg/kg)
CCSc1nsnc1[C@H]1CN2CCC[C@H]1C2 (relative stereo) [Compound 32, Exo-6-(3-ethylthio-1,2,5-thiadiazol-4-yl)-1-azabicyclo[3.2.1]octane oxalate] | 8.89 | 46% | 
CCCCCCOc1nsnc1[C@H]1CN2CCC[C@H]1C2 (relative stereo) [Compound 122, Exo-6-(3-hexyloxy-1,2,5-thiadiazol-4-yl)-1-azabicyclo[3.2.1]octane oxalate] | 8.68 | 1% | 
CCCCSc1nsnc1C1CN2CCCC1C2 (single isomer, unassigned) [Compound 111, (-)-Exo-6-(3-butylthio-1,2,5-thiadiazol-4-yl)-1-azabicyclo[3.2.1]octane (+) L-tartrate] | 9.00 |  | 8%
CC(C)CCSc1nsnc1[C@H]1CN2CCC[C@H]1C2 (relative stereo) [Compound 77, Exo-6-(3-isopentylthio-1,2,5-thiadiazol-4-yl)-1-azabicyclo[3.2.1]octane] | 8.57 | 85% | 
CCCCCCSc1nsnc1[C@H]1CN2CCC[C@H]1C2 (relative stereo) [Compound 29, Exo-6-(3-hexylthio-1,2,5-thiadiazol-4-yl)-1-azabicyclo[3.2.1]octane oxalate] | 8.92 | 29% | 
c1ccc(OCCSc2nsnc2[C@H]2CN3CCC[C@H]2C3)cc1 (relative stereo) [Compound 133, Exo-6-(3-(2-phenoxyethylthio)-1,2,5-thiadiazol-4-yl)-1-azabicyclo[3.2.1]octane oxalate] | 8.89 | 1% | 
CCCCSc1nsnc1C1CN2CCC1CC2.O=C(O)/C=C/C(=O)O (stereo not shown) [Compound 13, 3-(3-Butylthio-1,2,5-thiadiazol-4-yl)-1-azabicyclo[2.2.2]octane fumarate] | 8.72 | 18% | 
CC(C)CCCSc1nsnc1[C@@H]1CN2CCC[C@@H]1C2 [Compound 158, (-)-Exo-6-(3-isohexylthio-1,2,5-thiadiazol-4-yl)-1-azabicyclo[3.2.1]octane oxalate] | 8.00 | 47% | 
FC(F)(F)CCCSc1nsnc1C1CN2CCCC1C2 (single isomer, unassigned; (-)) [Compound 130, (-)-Exo-6-(3-(4,4,4-trifluoro-1-butylthio)-1,2,5-thiadiazol-4-yl)-1-azabicyclo[3.2.1]octane oxalate] | 8.74 |  | 43%
CSc1nsnc1C1CN2CCC1CC2.O=C(O)C(=O)O (stereo not shown) [Compound 131, 3-(3-Methylthio-1,2,5-thiadiazol-4-yl)-1-azabicyclo[2.2.2]octane oxalate] | 8.55 | 53% | 
CCCCCCOc1nsnc1C1CN2CCC1CC2.O=C(O)/C=C/C(=O)O (stereo not shown) [Compound 11, 3-(3-Hexyloxy-1,2,5-thiadiazol-4-yl)-1-azabicyclo[2.2.2]octane fumarate] | 8.22 | 11% | 
CCCCCOc1nsnc1[C@H]1CN2CCC[C@H]1C2 (relative stereo) [Compound 59, Exo-6-(3-pentyloxy-1,2,5-thiadiazol-4-yl)-1-azabicyclo[3.2.1]octane oxalate] | 9.00 | 12% | 
CCCCOc1nsnc1C1CN2CCC1CC2.O=C(O)C(=O)O (stereo not shown) [Compound 46, 3-(3-Butoxy-1,2,5-thiadiazol-4-yl)-1-azabicyclo[2.2.2]octane oxalate] | 8.80 | 30% | 
CCSc1nsnc1C1CN2CCC1CC2.O=C(O)C(=O)O (stereo not shown) [Compound 52, 3-(3-Ethylthio-1,2,5-thiadiazol-4-yl)-1-azabicyclo[2.2.2]octane oxalate] | 8.74 | 63% | 
CCCCOc1nsnc1[C@H]1CN2CCC[C@H]1C2 (relative stereo) [Compound 120, Exo-6-(3-butoxy-1,2,5-thiadiazol-4-yl)-1-azabicyclo[3.2.1]octane oxalate] | 9.05 | 27% | 
CC(C)CCCSc1nsnc1[C@H]1CN2CCC[C@H]1C2 (relative stereo) [Compound 76, Exo-6-(3-isohexylthio-1,2,5-thiadiazol-4-yl)-1-azabicyclo[3.2.1]octane oxalate] | 8.11 | 28% | 
N#CCSc1nsnc1C1CN2CCC1CC2.O=C(O)C(=O)O (stereo not shown) [Compound 103, 3-(3-Cyanomethylthio-1,2,5-thiadiazol-4-yl)-1-azabicyclo[2.2.2]octane oxalate] | 8.57 | 51% | 
CSc1nsnc1[C@H]1CN2CCC[C@H]1C2 (relative stereo) [Compound 74, Exo-6-(3-methylthio-1,2,5-thiadiazol-4-yl)-1-azabicyclo[3.2.1]octane oxalate] | 8.85 | 22% | 
N#Cc1ccc(CSc2nsnc2[C@H]2CN3CCC[C@H]2C3)cc1 (relative stereo) [Compound 82, Exo-6-(3-(4-cyanobenzylthio)-1,2,5-thiadiazol-4-yl)-1-azabicyclo[3.2.1]octane oxalate] | 8.89 | 24% | 
CCOc1nsnc1C1CN2CCC1CC2.O=C(O)/C=C/C(=O)O (stereo not shown) [Compound 9, 3-(3-Ethoxy-1,2,5-thiadiazol-4-yl)-1-azabicyclo[2.2.2]octane fumarate] | 8.68 | 65% | 
FC(F)(F)CCCSc1nsnc1C1CN2CCCC1C2 (single isomer, unassigned; (+)) [Compound 167, (+)-Exo-6-(3-(4,4,4-trifluorobutylthio)-1,2,5-thiadiazol-4-yl)-1-azabicyclo-[3.2.1]octane oxalate] | 9.12 |  | 56%
CC(C)CCCSc1nsnc1[C@H]1CN2CCC[C@H]1C2 [Compound 157, (+)-Exo-(5R,6R)-6-(3-isohexylthio-1,2,5-thiadiazol-4-yl)-1-azabicyclo[3.2.1]-octane (+) L-tartrate] | 8.00 | 12% | 
CCOc1nsnc1[C@H]1CN2CCC[C@H]1C2 (relative stereo) [Compound 19, Exo-6-(3-ethoxy-1,2,5-thiadiazol-4-yl)-1-azabicyclo[3.2.1]octane oxalate] | 8.92 | 73% | 
O=C(O)/C=C/C(=O)O.c1csc(CCCSc2nsnc2C2CN3CCC2CC3)c1 (stereo not shown) [Compound 104, 3-(3-(3-(2-Thienyl)propylthio)-1,2,5-thiadiazol-4-yl)-1-azabicyclo[2.2.2]octane fumarate] | 8.59 | 24% | 
CCCSc1nsnc1[C@H]1CN2CCC[C@H]1C2 (relative stereo) [Compound 58, Exo-6-(3-propylthio-1,2,5-thiadiazol-4-yl)-1-azabicyclo[3.2.1]octane oxalate] | 9.10 | 41% | 
CCCCSc1nsnc1C1CN2CCC1CC2.O=C(O)C(O)C(O)C(=O)O (single isomer, unassigned) [Compound 56, (+) 3-(3-Butylthio-1,2,5-thiadiazol-4-yl)-1-azabicyclo[2.2.2]octane (-)D-tartrate] | 9.40 | 6% | 
CCCCSc1nsnc1[C@H]1CN2CCC[C@H]1C2 (relative stereo) [Compound 30, Exo-6-(3-butylthio-1,2,5-thiadiazol-4-yl)-1-azabicyclo[3.2.1]octane oxalate] | 9.40 | 32% | 
CCCSc1nsnc1C1CN2CCCC1C2 (single isomer, unassigned; (+)) [Compound 113, (+)-Exo-6-(3-propylthio-1,2,5-thiadiazol-4-yl)-1-azabicyclo[3.2.1]octane (+) L-tartrate] | 9.10 |  | 19%
CCCSc1nsnc1C1CN2CCCC1C2 (single isomer, unassigned) [Compound 114, (+)-Exo-6-(3-propylthio-1,2,5-thiadiazol-4-yl)-1-azabicyclo[3.2.1]octane (-) D-tartrate] | 9.35 |  | 39%
